Assay results from ChEMBL document CHEMBL1201862, “PubChem BioAssay data set” (2004).
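These data come from cells grown in 96-well plates and exposed to compound for 48 hours at five concentrations. GI50 = concentration required for 50% inhibition of growth.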 Active and inactive are the calls of the source. No stated cut-off is given here; in the data, active = GI50 up to about 1.1 µM and inactive = higher.

What was measured:
Experiment in all cases: NCI tumour cell line growth inhibition, 48 h
UACC-62 = test system: UACC-62
HCC 2998 = test system: HCC 2998
A498 = test system: A498
KM12 = test system: KM12
KM-20L2 = test system: KM-20L2
A549 = test system: A549
DLD-1 = test system: DLD-1
M14 = test system: M14
UO-31 = test system: UO-31
RPMI-8226 = test system: RPMI-8226
U-251 = test system: U-251
IGROV-1 = test system: IGROV-1
SK-MEL-28 = test system: SK-MEL-28
NCI-H226 = test system: NCI-H226
SK-MEL-5 = test system: SK-MEL-5
TK-10 = test system: TK-10
MOLT-4 = test system: MOLT-4

Measured: GI50

COc1ccc2c(c1)[n+]([O-])c(C(=O)C/C(=N/NC(=O)C[N+](C)(C)C)C(=O)Nc1cccc(C)c1C)c(C)[n+]2[O-]
inactive: UACC-62 > 100 µM | HCC 2998 > 100 µM | A498 > 100 µM | KM12 6.34 µM | KM-20L2 > 100 µM | A549 > 100 µM | DLD-1 > 100 µM | M14 > 100 µM | UO-31 > 100 µM | RPMI-8226 > 100 µM | U-251 > 100 µM | IGROV-1 > 100 µM | SK-MEL-28 > 100 µM | NCI-H226 > 100 µM

C=C(C)CCOC(c1ccccc1)(c1ccccc1)c1ccccc1
inactive: UACC-62 40.1 µM | HCC 2998 25.6 µM | SK-MEL-5 27.4 µM | KM12 48.6 µM | KM-20L2 23.5 µM | A549 38.9 µM | TK-10 83.4 µM | DLD-1 60.4 µM | M14 32.8 µM | UO-31 27.7 µM | RPMI-8226 33.9 µM | U-251 50 µM | IGROV-1 > 100 µM | MOLT-4 51.3 µM | SK-MEL-28 42.7 µM | NCI-H226 26.3 µM

Cc1ccc(S(=O)(=O)N2CCC3(C(/C=C/c4ccccc4)=Nc4ccccc43)C2c2ccccc2)cc1 (stereo not drawn)
inactive: UACC-62 > 100 µM | HCC 2998 > 100 µM | A498 > 100 µM | SK-MEL-5 > 100 µM | KM12 > 100 µM | KM-20L2 > 100 µM | A549 > 100 µM | TK-10 > 100 µM | DLD-1 > 100 µM | M14 > 100 µM | UO-31 61.7 µM | RPMI-8226 > 100 µM | U-251 > 100 µM | IGROV-1 1.41 µM | SK-MEL-28 > 100 µM | NCI-H226 37.9 µM

CCCCCCCCCCCCCC(=O)OCC1OC(n2cc(F)c(=O)[nH]c2=O)C(NC(=O)OCc2ccccc2)C(OC(=O)CCCCCCCCCCCCC)C1O (stereo not drawn)
inactive: UACC-62 > 100 µM | HCC 2998 > 100 µM | A498 > 100 µM | SK-MEL-5 > 100 µM | KM12 > 100 µM | KM-20L2 > 100 µM | A549 > 100 µM | TK-10 > 100 µM | DLD-1 > 100 µM | M14 > 100 µM | UO-31 > 100 µM | RPMI-8226 > 100 µM | U-251 > 100 µM | IGROV-1 > 100 µM | MOLT-4 > 100 µM | SK-MEL-28 > 100 µM | NCI-H226 > 100 µM

Nc1nc2c(ncn2C2OC(CO)C(O)C2O)c(=O)o1 (stereo not drawn)
inactive: UACC-62 > 100 µM | HCC 2998 5.82 µM | A498 > 100 µM | SK-MEL-5 > 100 µM | KM12 > 100 µM | KM-20L2 > 55 µM | A549 > 100 µM | TK-10 > 100 µM | DLD-1 > 89.1 µM | M14 > 100 µM | UO-31 > 87.1 µM | RPMI-8226 > 52.8 µM | U-251 > 100 µM | IGROV-1 > 100 µM | SK-MEL-28 > 100 µM | NCI-H226 > 100 µM

Cc1nc2ccccc2c(=O)n1-c1ccccc1F
inactive: UACC-62 > 100 µM | HCC 2998 > 100 µM | A498 > 100 µM | SK-MEL-5 > 100 µM | KM12 > 100 µM | KM-20L2 > 100 µM | A549 > 100 µM | TK-10 > 100 µM | DLD-1 > 100 µM | M14 > 100 µM | UO-31 74.3 µM | U-251 > 100 µM | IGROV-1 > 100 µM | MOLT-4 > 100 µM | SK-MEL-28 > 100 µM | NCI-H226 > 100 µM

CC(=O)Nc1ccc(S(=O)(=O)NN(C)S(=O)(=O)c2ccc(C)cc2)cc1
inactive: UACC-62 > 100 µM | HCC 2998 > 100 µM | A498 > 100 µM | SK-MEL-5 > 100 µM | KM12 > 100 µM | KM-20L2 > 100 µM | A549 > 100 µM | TK-10 > 100 µM | DLD-1 > 100 µM | M14 > 100 µM | UO-31 > 100 µM | RPMI-8226 > 100 µM | IGROV-1 > 100 µM | MOLT-4 > 100 µM | SK-MEL-28 > 100 µM

O=C1CCC(=O)c2ccccc2N1
inactive: HCC 2998 > 100 µM | A498 > 100 µM | SK-MEL-5 > 100 µM | KM12 > 100 µM | KM-20L2 > 100 µM | A549 > 100 µM | TK-10 > 100 µM | DLD-1 > 100 µM | M14 > 100 µM | UO-31 > 100 µM | RPMI-8226 > 100 µM | U-251 > 100 µM | IGROV-1 > 100 µM | MOLT-4 > 100 µM | SK-MEL-28 > 100 µM | NCI-H226 > 100 µM

COc1ccc(-c2[nH]c3ccccc3c2CCNS(=O)(=O)c2ccc(C)cc2)cc1
inactive: UACC-62 > 8.39 µM | HCC 2998 9.68 µM | A498 > 10 µM | SK-MEL-5 > 5.9 µM | KM12 6.82 µM | KM-20L2 > 8.47 µM | A549 6.05 µM | TK-10 > 7.8 µM | DLD-1 8.09 µM | M14 > 10 µM | UO-31 4.92 µM | RPMI-8226 4.68 µM | U-251 8.09 µM | IGROV-1 > 6.34 µM | MOLT-4 4.21 µM | SK-MEL-28 > 10 µM | NCI-H226 > 7.6 µM

CN(C)c1ccc(/C=C2\Cc3ccccc3C2=O)cc1Br
inactive: UACC-62 59.8 µM | HCC 2998 > 100 µM | A498 > 100 µM | SK-MEL-5 26.4 µM | KM12 43.2 µM | KM-20L2 81.8 µM | A549 61.4 µM | TK-10 > 100 µM | DLD-1 47.5 µM | M14 54.6 µM | UO-31 36.6 µM | RPMI-8226 24.1 µM | U-251 53.3 µM | IGROV-1 > 100 µM | MOLT-4 28.5 µM | SK-MEL-28 39 µM

CCOC(=O)N1CCc2cc(OC)c(OC)c3c2C1CC3=O (stereo not drawn)
inactive: UACC-62 > 100 µM | HCC 2998 > 100 µM | A498 > 100 µM | SK-MEL-5 > 100 µM | KM12 > 100 µM | KM-20L2 > 100 µM | A549 > 100 µM | TK-10 > 100 µM | DLD-1 > 100 µM | M14 > 100 µM | UO-31 > 100 µM | RPMI-8226 > 100 µM | U-251 > 100 µM | IGROV-1 > 100 µM | MOLT-4 > 100 µM

CCc1ccccc1NC(=O)C(=O)C(C(=O)c1ccc(OC)cc1)c1ccc(OC)cc1 (stereo not drawn)
inactive: UACC-62 > 100 µM | HCC 2998 > 100 µM | A498 > 100 µM | SK-MEL-5 > 100 µM | KM12 > 100 µM | KM-20L2 > 100 µM | A549 > 100 µM | TK-10 > 100 µM | DLD-1 > 100 µM | M14 > 100 µM | UO-31 > 100 µM | RPMI-8226 > 100 µM | U-251 > 100 µM | IGROV-1 > 100 µM | MOLT-4 94.2 µM | NCI-H226 > 100 µM

OCCN1CCN2C=C(C3CCCC4N(CCO)CCN34)CCC21 (stereo not drawn)
inactive: UACC-62 28.1 µM | HCC 2998 > 100 µM | A498 > 100 µM | SK-MEL-5 41.9 µM | KM12 > 95.7 µM | KM-20L2 > 100 µM | A549 > 100 µM | TK-10 > 53.5 µM | DLD-1 22.7 µM | M14 44.7 µM | UO-31 97.3 µM | RPMI-8226 8.04 µM | U-251 41.4 µM | IGROV-1 76 µM | MOLT-4 13.9 µM | SK-MEL-28 42 µM | NCI-H226 > 91 µM

CCCCCCCCCCCCCCCCCC[N+](C)(C)Cc1ccc(C[N+](C)(C)CCCCCCCCCCCCCCCCCC)cc1
inactive: UACC-62 21.9 µM | HCC 2998 26.2 µM | A498 22.8 µM | SK-MEL-5 22.8 µM | KM12 12.4 µM | KM-20L2 31.3 µM | A549 13.6 µM | TK-10 13.6 µM | DLD-1 22.1 µM | M14 17.3 µM | UO-31 27.7 µM | RPMI-8226 15.6 µM | U-251 7.98 µM | IGROV-1 16.6 µM | MOLT-4 21 µM | SK-MEL-28 18.1 µM | NCI-H226 5.53 µM

CN(OC(=O)CC(=O)c1ccccc1)C(=O)Cc1ccccc1
inactive: UACC-62 > 100 µM | A498 > 100 µM | SK-MEL-5 > 100 µM | KM12 > 100 µM | KM-20L2 > 100 µM | A549 > 100 µM | TK-10 > 100 µM | DLD-1 > 100 µM | M14 > 100 µM | UO-31 > 100 µM | RPMI-8226 46.7 µM | U-251 > 100 µM | IGROV-1 > 100 µM | NCI-H226 > 100 µM

O=P(O)(OCC(O)O)OCC(O)O
inactive: HCC 2998 > 100 µM | A498 > 100 µM | SK-MEL-5 > 100 µM | KM12 > 100 µM | KM-20L2 > 100 µM | A549 > 100 µM | TK-10 > 100 µM | DLD-1 > 100 µM | UO-31 > 100 µM | RPMI-8226 > 100 µM | U-251 > 100 µM | IGROV-1 > 100 µM | MOLT-4 > 100 µM | SK-MEL-28 > 100 µM

CC(=O)OC[C@]1(O)CC[C@@]23CC1C[C@@H]2CCC1C(C)(C)CCC[C@@]13C (stereo partly drawn)
inactive: UACC-62 13.4 µM | HCC 2998 17.4 µM | SK-MEL-5 15 µM | KM12 13 µM | KM-20L2 17.3 µM | A549 15.8 µM | TK-10 13.4 µM | DLD-1 15.3 µM | M14 13.9 µM | UO-31 16.1 µM | RPMI-8226 9.23 µM | U-251 14 µM | IGROV-1 19.7 µM | MOLT-4 1.77 µM | SK-MEL-28 14.8 µM | NCI-H226 15.8 µM
